According to PMC12447631 (Environmental science & technology, 2018):

Target: T1, MGS0156 (uncultured organism, UniProt A0A0G3FEJ8)
T1 sequence (A0A0G3FEJ8 75-421): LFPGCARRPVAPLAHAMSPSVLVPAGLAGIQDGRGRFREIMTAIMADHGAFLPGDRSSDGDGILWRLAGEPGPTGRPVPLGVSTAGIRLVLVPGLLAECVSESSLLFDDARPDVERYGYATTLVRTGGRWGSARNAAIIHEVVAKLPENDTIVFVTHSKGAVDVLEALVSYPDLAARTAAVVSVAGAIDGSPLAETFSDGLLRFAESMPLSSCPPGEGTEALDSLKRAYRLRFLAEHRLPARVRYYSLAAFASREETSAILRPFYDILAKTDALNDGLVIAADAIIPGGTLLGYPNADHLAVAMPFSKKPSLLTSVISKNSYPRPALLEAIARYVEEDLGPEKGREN
Assay: spectrophotometric pNP ester hydrolysis
Assay type: biochemical
Conditions: 0.5 mM substrate, 50 mM HEPES-K pH 8.0, 30 °C

`CCCCCCCC(=O)Oc1ccc([N+](=O)[O-])cc1` [pNP-octanoate] was tested, and the specific activity was “MGS0156 was most active against pNP -octanoate and pNP -decanoate (C8–C10 substrates)”.
